Test results published in ChEMBL document CHEMBL1201862, “PubChem BioAssay data set” (2004).
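Each compound was tested at five concentrations against cells in 96-well plates for 48 hours. At the GI50, growth is halved.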 Active and inactive are the calls of the source. Rule as the data show it: active = GI50 up to about 1.1 µM and inactive = higher.

What was measured:
Assay in all cases: DTP human tumour cell line panel, 48 h
SK-MEL-5 = tested on: SK-MEL-5
OVCAR-3 = tested on: OVCAR-3
CCRF-CEM = tested on: CCRF-CEM
LOX IMVI = tested on: LOX IMVI
HCC 2998 = tested on: HCC 2998
UACC-257 = tested on: UACC-257
HT-29 = tested on: HT-29
OVCAR-5 = tested on: OVCAR-5
Malme-3M = tested on: Malme-3M
CAKI-1 = tested on: CAKI-1
SNB-75 = tested on: SNB-75
A498 = tested on: A498
UACC-62 = tested on: UACC-62
SK-OV-3 = tested on: SK-OV-3
LXFL 529 = tested on: LXFL 529
SR = tested on: SR
COLO 205 = tested on: COLO 205
RXF 393 = tested on: RXF 393

SMILES	GI50 (SK-MEL-5)	GI50 (OVCAR-3)	GI50 (CCRF-CEM)	GI50 (LOX IMVI)	GI50 (HCC 2998)	GI50 (UACC-257)	GI50 (HT-29)	GI50 (OVCAR-5)	GI50 (Malme-3M)	GI50 (CAKI-1)	GI50 (SNB-75)	GI50 (A498)	GI50 (UACC-62)	GI50 (SK-OV-3)	GI50 (LXFL 529)	GI50 (SR)	GI50 (COLO 205)	GI50 (RXF 393)
CC(=O)NC1=C(C)C(=O)c2c(nc3n2CCC3OC(=O)CCl)C1=O (centres undefined)	12.7 µM (inactive)	1.41 µM (inactive)	1.45 µM (inactive)	4.15 µM (inactive)	12.9 µM (inactive)	12.7 µM (inactive)	15.6 µM (inactive)	12.9 µM (inactive)	3.66 µM (inactive)	20.9 µM (inactive)	16.3 µM (inactive)	12.6 µM (inactive)	2.81 µM (inactive)	16.1 µM (inactive)	2.11 µM (inactive)	2.68 µM (inactive)	17.5 µM (inactive)	5.43 µM (inactive)
Cc1c(C(=O)CC(=O)C(=O)Nc2cc(Cl)ccc2Cl)[n+]([O-])c2ccccc2[n+]1[O-]	32.6 µM (inactive)	19.9 µM (inactive)	73.8 µM (inactive)	27.4 µM (inactive)	37.7 µM (inactive)	34.8 µM (inactive)	28.5 µM (inactive)	> 100 µM (inactive)	43.6 µM (inactive)	> 100 µM (inactive)	33.6 µM (inactive)	> 100 µM (inactive)	19.5 µM (inactive)	> 100 µM (inactive)	45.6 µM (inactive)	28.4 µM (inactive)	31.4 µM (inactive)	53.8 µM (inactive)
CC(=O)NNc1nc(C)c(C(/C=C/c2ccc(Cl)cc2)=N\N=C(N)N)s1	> 100 µM (inactive)	> 100 µM (inactive)	> 100 µM (inactive)	> 100 µM (inactive)	> 100 µM (inactive)	> 100 µM (inactive)	> 100 µM (inactive)	> 100 µM (inactive)	> 100 µM (inactive)	> 100 µM (inactive)	> 100 µM (inactive)		> 100 µM (inactive)	> 100 µM (inactive)	> 100 µM (inactive)	> 100 µM (inactive)	> 100 µM (inactive)	> 100 µM (inactive)
O=C1CSc2cc([N+](=O)[O-])ccc2N1	> 100 µM (inactive)	> 100 µM (inactive)	> 100 µM (inactive)	> 100 µM (inactive)	> 100 µM (inactive)	> 100 µM (inactive)	> 100 µM (inactive)	> 100 µM (inactive)	> 100 µM (inactive)	> 100 µM (inactive)	22.1 µM (inactive)	> 100 µM (inactive)	> 100 µM (inactive)	> 100 µM (inactive)	> 100 µM (inactive)		> 100 µM (inactive)	> 100 µM (inactive)
COC(=O)C12OCC34C(CC5C(C)C6=CC(=O)OC6=CC5(C)C3C(O)C1O)OC(=O)C(O)C24 (centres undefined)	0.0794 µM (active)	0.655 µM (active)		0.157 µM (active)	0.156 µM (active)	1.5 µM (inactive)	0.217 µM (active)	2.56 µM (inactive)	0.159 µM (active)	4.08 µM (inactive)	0.399 µM (active)	0.544 µM (active)	0.319 µM (active)	5.16 µM (inactive)	0.101 µM (active)	< 0.01 µM (active)	6.43 µM (inactive)	0.493 µM (active)
O=S(=O)(/C=C/c1ccc(Cl)cc1Cl)Cc1ccccc1CS(=O)(=O)/C=C/c1ccc(Cl)cc1Cl		> 100 µM (inactive)	9.27 µM (inactive)	> 100 µM (inactive)	> 100 µM (inactive)	52.8 µM (inactive)	49.4 µM (inactive)	> 100 µM (inactive)		> 100 µM (inactive)	6.18 µM (inactive)	33.5 µM (inactive)	8.38 µM (inactive)	> 100 µM (inactive)	43.1 µM (inactive)	> 100 µM (inactive)	> 100 µM (inactive)	65.2 µM (inactive)
Nc1c(S(=O)(=O)c2ccccc2)c2nc3ccccc3nc2n2c1nc1ccccc12	32.4 µM (inactive)	> 25.4 µM (inactive)	> 39.2 µM (inactive)	> 60.8 µM (inactive)	> 78.5 µM (inactive)	> 51.5 µM (inactive)	> 84.1 µM (inactive)	> 100 µM (inactive)	19.5 µM (inactive)	> 54.1 µM (inactive)	7.83 µM (inactive)	> 100 µM (inactive)	> 62.8 µM (inactive)	> 100 µM (inactive)	> 52 µM (inactive)	> 71.6 µM (inactive)	> 100 µM (inactive)	> 100 µM (inactive)
CCC(=O)c1c(NOC2OCC(OC(C)=O)C(OC(C)=O)C2OC(C)=O)nc(OC)n(C)c1=O (centres undefined)	> 100 µM (inactive)	> 100 µM (inactive)	> 100 µM (inactive)	> 100 µM (inactive)	> 100 µM (inactive)	> 100 µM (inactive)	> 100 µM (inactive)	> 100 µM (inactive)	> 100 µM (inactive)	> 100 µM (inactive)	> 100 µM (inactive)	> 100 µM (inactive)	> 100 µM (inactive)	> 100 µM (inactive)	> 100 µM (inactive)	> 100 µM (inactive)	> 100 µM (inactive)	> 100 µM (inactive)
